The numbers were not newly measured in paper PMC9788431, “Combination of Docking-Based and Pharmacophore-Based Virtual Screening Identifies Novel Agonists That Target the Urotensin Receptor” (Molecules, 2022), which cites them from elsewhere.

For the data set, the target named is T1, UT receptor (Homo sapiens, UniProt Q9UKP6).
T1 construct: SNAP-tag; expressed in transfected cells; host or cells: 293A8 (HEK293A stably transfected with the UT receptor); inferred, the calcium-assay paragraph names no cells
T1 sequence (Q9UKP6 1-389): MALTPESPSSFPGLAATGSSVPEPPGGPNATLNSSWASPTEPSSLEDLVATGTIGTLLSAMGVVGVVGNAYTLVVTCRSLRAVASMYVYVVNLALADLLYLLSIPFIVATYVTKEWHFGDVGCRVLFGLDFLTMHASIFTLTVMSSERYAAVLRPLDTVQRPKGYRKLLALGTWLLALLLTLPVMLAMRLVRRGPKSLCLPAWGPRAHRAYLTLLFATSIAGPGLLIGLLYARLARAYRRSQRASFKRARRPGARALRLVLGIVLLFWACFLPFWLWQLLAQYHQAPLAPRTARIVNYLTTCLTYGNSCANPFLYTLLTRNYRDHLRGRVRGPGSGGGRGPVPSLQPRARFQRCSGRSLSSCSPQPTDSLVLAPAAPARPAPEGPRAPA
The settings on record: agonist; Table S1 benchmarking ligands; ref ChEMBL database and others; cited from earlier work.

Residues, ends and D or L forms follow the SMILES beside them.

On to `COc1ccc(-c2ccc(C(=O)NC(CCN(C)C)c3ccc4ccccc4c3)cc2)cc1` (stereo not shown) [CHEMBL578654], for which the 50% effective concentration (EC50) is 105 nM.

As for `CN(C)CCC(NC(=O)c1ccc(-c2ccc3ccccc3c2)cc1)c1ccc2ccccc2c1` (stereo not shown) [CHEMBL578853], the EC50 was 525 nM.

On to `CN(C)CCC(NC(=O)c1cccc(-c2ccc(Cl)cc2)c1)c1ccc(Cl)cc1` (stereo not shown) [CHEMBL582835], for which the EC50 was 437 nM.

Regarding `CN(C)CCC(NC(=O)c1ccc(-c2ccccc2)cc1)c1ccc(Cl)cc1` (stereo not shown) [CHEMBL583981], the EC50 was 77.6 nM.

Regarding `NCCCC[C@@H]1NC(=O)[C@H](Cc2c[nH]c3ccccc23)NC(=O)[C@H](CO)NC(=O)CNC(=O)[C@@H]2CCCN2C(=O)[C@H](Cc2ccc(O)cc2)NC1=O` [CHEMBL593612] (cyclo(GSWKYP)), the EC50 is 8.51 nM.

On to `NCCCC[C@@H]1NC(=O)[C@H](Cc2c[nH]c3ccccc23)NC(=O)[C@H](CO)NC(=O)CNC(=O)[C@@H]2CCCN2C(=O)[C@H](Cc2ccccc2)NC1=O` [CHEMBL593663] (cyclo(FPGSWK)), for which the EC50 was 10.1 nM.

Consider `NCCCC[C@@H]1NC(=O)[C@H](Cc2c[nH]c3ccccc23)NC(=O)[C@H](Cc2ccccc2)NC(=O)CNC(=O)[C@@H]2CCCN2C(=O)[C@H](Cc2ccc(O)cc2)NC1=O` [CHEMBL607809] (cyclo(FWKYPG)), for which the EC50 was 6.94 nM.

On to `NCCCC[C@@H]1NC(=O)[C@H](Cc2c[nH]c3ccccc23)NC(=O)[C@H](Cc2ccc(O)cc2)NC(=O)CNC(=O)[C@@H]2CCCN2C(=O)[C@H](Cc2ccc(O)cc2)NC1=O` [CHEMBL607810] (cyclo(GYWKYP)), for which the EC50 is 12.6 nM.

In the case of `NCCCC[C@@H]1NC(=O)[C@H](Cc2c[nH]c3ccccc23)NC(=O)[C@H](Cc2ccccc2)NC(=O)CNC(=O)[C@@H]2CCCN2C(=O)[C@H](Cc2ccccc2)NC1=O` [CHEMBL607811] (cyclo(FPGFWK)), the EC50 was 13.2 nM.

On to `NCCCC[C@@H]1NC(=O)[C@H](Cc2c[nH]c3ccccc23)NC(=O)[C@H](Cc2ccc(O)cc2)NC(=O)CNC(=O)[C@@H]2CCCN2C(=O)[C@H](Cc2ccccc2)NC1=O` [CHEMBL608097] (cyclo(FPGYWK)), for which the EC50 is 75.7 nM.

As for `NCCCC[C@@H]1NC(=O)[C@H](Cc2c[nH]c3ccccc23)NC(=O)[C@H](Cc2ccccc2)NC(=O)CNC(=O)[C@@H]2CCCN2C(=O)[C@H](Cc2c[nH]c3ccccc23)NC1=O` [CHEMBL608098] (cyclo(FWKWPG)), the concentration for a half-maximal effect (EC50) is 20.6 nM.

Consider `NCCCC[C@@H]1NC(=O)[C@H](Cc2c[nH]c3ccccc23)NC(=O)[C@H](CO)NC(=O)CNC(=O)[C@@H]2CCCN2C(=O)[C@H](Cc2c[nH]c3ccccc23)NC1=O` [CHEMBL608099] (cyclo(GSWKWP)), for which the EC50 is 16.7 nM.

With `Cc1cc2c(cc1C)C(=O)OC(CCN(C)C)(c1ccc(Cl)c(Cl)c1)C2` (stereo not shown) [CHEMBL1171808], the EC50 was 51.3 nM.

Regarding `Cc1cc2c(cc1C)CC(CCN(C)C)(c1ccc3ccccc3c1)OC2` (stereo not shown) [CHEMBL1172223], the EC50 is 263 nM.

With `CN(C)CCC1(c2ccc(Cl)c(Cl)c2)Cc2ccccc2C(=O)O1` (stereo not shown) [CHEMBL1172763], the EC50 is 676 nM.

Regarding `C=CCN(CC=C)c1ccc2c(c1)CC(CCN(C)C)(c1ccc(Cl)cc1)OC2=O` (stereo not shown) [CHEMBL1173081], the EC50 was 724 nM.

Consider `CN(C)CCC1(c2ccc(Cl)cc2)Cc2ccccc2CO1` (stereo not shown) [CHEMBL1173172], for which the EC50 was 501 nM.

As for `Cc1cc2c(cc1C)C(=O)OC(CCN(C)C)(c1ccc3ccccc3c1)C2` (stereo not shown) [CHEMBL1173399], the EC50 is 148 nM.

For `Cc1cc2c(cc1C)CC(CCN(C)C)(c1ccc(Cl)cc1)OC2` (stereo not shown) [CHEMBL1173492], the EC50 was 692 nM.
